This passage reports IC50 results from patent US9388199B2, “Pyrrolidine derivatives and their use as complement pathway modulators” (priority 2012, dated 2016).

By IC50 is commonly meant the concentration needed to halve the response being measured.

The target of the assay is Recombinant human factor D (Homo sapiens (Human), UniProt P00746). The assay is described as follows: Human Complement Factor D Assay: Method 1. Format: biochemical. The conditions noted are these: 10 nM factor D, substrate Z-Lys-thiobenzyl, fluorescence readout, read-out: IC50 (μM), Factor D inhibition. The protocol:
Human Complement Factor D Assay: Method 1
Recombinant human factor D (expressed in E. coli and purified using standard methods) at 10 nM concentration is incubated with test compound at various concentrations for 1 hour at room temperature in 0.1 M Hepes buffer, pH 7.5, containing 1 mM MgCl2, 1 M NaCl and 0.05% CHAPS. A synthetic substrate Z-Lys-thiobenzyl and 2,4-dinitrobenzenesulfonyl-fluoresceine are added to final concentrations of 200 μM and 25 μM, respectively. The increase in fluorescence is recorded at excitation of 485 nm and emission at 535 nm in a microplate spectrofluorimeter. IC50 values are calculated from percentage of inhibition of complement factor D-activity as a function of test compound concentration.

SMILES strings stand for the structures. Structures can show the parent of a compound that is named as a salt.

Chain of Recombinant human factor D (P00746 26-253): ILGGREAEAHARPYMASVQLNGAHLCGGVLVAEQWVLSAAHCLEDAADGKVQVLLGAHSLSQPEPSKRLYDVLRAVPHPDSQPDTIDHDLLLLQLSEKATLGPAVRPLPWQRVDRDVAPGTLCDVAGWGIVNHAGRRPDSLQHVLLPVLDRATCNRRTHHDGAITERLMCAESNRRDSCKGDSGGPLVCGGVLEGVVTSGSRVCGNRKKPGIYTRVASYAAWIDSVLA

`NC(=O)c1nn(CC(=O)N2[C@@H]3C[C@@H]3C[C@H]2C(=O)NCC(F)F)c2ccccc12` [Example 32, 1-{2-[(1R,3S,5R)-3-(2,2-Difluoro-ethylcarbamoyl)-2-aza-bicyclo[3.1.0]hex-2-yl]-2-oxo-ethyl}-1H-indazole-3-carboxylic acid amide]: the IC50 was 0.874 µM.

Take `CCNC(=O)[C@@H]1C[C@H]2C[C@H]2N1C(=O)Cn1nc(C(C)=O)c2cc(OCc3ncccn3)ccc21` [Example 13, (1R,3S,5R)-2-{2-[3-Acetyl-5-(pyrimidin-2-ylmethoxy)-indazol-1-yl]-acetyl}-2-aza-bicyclo[3.1.0]hexane-3-carboxylic acid ethylamide]: the IC50 is 0.504 µM.

With `C[C@H](CC(C)(C)C)NC(=O)[C@@H]1C[C@H]2C[C@H]2N1C(=O)Cn1nc(C(N)=O)c2ccccc21` [Example 36, 1-{2-Oxo-2-[(1R,3S,5R)-3-((R)-1,3,3-trimethyl-butylcarbamoyl)-2-aza-bicyclo[3.1.0]hex-2-yl]-ethyl}-1H-indazole-3-carboxylic acid amide], the IC50 stood at 0.113 µM.

As for `NC(=O)c1nn(CC(=O)N2[C@@H]3C[C@@H]3C[C@H]2C(=O)NCCF)c2ccccc12` [Example 41, 1-{2-[(1R,3S,5R)-3-(2-Fluoro-ethylcarbamoyl)-2-aza-bicyclo[3.1.0]hex-2-yl]-2-oxo-ethyl}-1H-indazole-3-carboxylic acid amide], the IC50 came to 1.35 µM.

Consider `CO[C@H]1[C@@H](C(=O)NCCC(C)(C)C)N(C(=O)Cn2nc(C(N)=O)c3cc(C)ncc32)C[C@@H]1F` [Example 4, 1-{2-[(2S,3S,4S)-2-(3,3-Dimethyl-butylcarbamoyl)-4-fluoro-3-methoxy-pyrrolidin-1-yl]-2-oxo-ethyl}-5-methyl-1H-pyrazolo[3,4-c]pyridine-3-carboxylic acid amide], for which the IC50 turned out to be 0.161 µM.

In the case of `CC(=O)c1nn(CC(=O)N2[C@@H]3C[C@@H]3C[C@H]2C(=O)NCCCOC(F)(F)F)c2ccc(OCc3ncccn3)cc12` [Example 14, (1R,3S,5R)-2-{2-[3-Acetyl-5-(pyrimidin-2-ylmethoxy)-indazol-1-yl]-acetyl}-2-aza-bicyclo[3.1.0]hexane-3-carboxylic acid (3-trifluoro methoxy-propyl)-amide], the IC50 was 0.127 µM.

Regarding `C[Si](C)(C)CCNC(=O)[C@@H]1C[C@H]2C[C@H]2N1C(=O)Nc1cn(C(N)=O)c2ccccc12` [Example 22, (1R,3S,5R)-2-Aza-bicyclo [3.1.0]hexane-2,3-dicarboxylic acid 2-[(1-carbamoyl-1H-indol-3-yl)-amide] 3-[(2-trimethylsilanyl-ethyl)-amide]], the concentration for half-maximal inhibition (IC50) amounted to 0.057 µM.

Take `CC(=O)c1nn(CC(=O)N2[C@@H]3C[C@@H]3C[C@H]2C(=O)NCC[Si](C)(C)C)c2cnccc12` [Example 43, (1R,3S,5R)-2-[2-(3-Acetyl-pyrazolo[3,4-c]pyridin-1-yl)-acetyl]-2-aza-bicyclo[3.1.0]hexane-3-carboxylic acid (2-trimethylsilanyl-ethyl)-amide]: the IC50 is 0.323 µM.

With `CO[C@H]1[C@@H](C(=O)NCCC(C)(C)C)N(C(=O)Cn2nc(C(C)=O)c3ccccc32)C[C@@H]1F` [Example 5, (2S,3S,4S)-1-[2-(3-Acetyl-indazol-1-yl)-acetyl]-4-fluoro-3-methoxy-pyrrolidine-2-carboxylic acid (3,3-dimethyl-butyl)-amide], the IC50 was 0.088 µM.

`CC(=O)c1nn(CC(=O)N2[C@@H]3C[C@@H]3C[C@H]2C(=O)NCCC(C)(C)C)c2ccc(OCc3ncccn3)cc12` [Example 8, (1R,3S,5R)-2-{2-[3-Acetyl-5-(pyrimidin-2-ylmethoxy)-indazol-1-yl]-acetyl}-2-aza-bicyclo[3.1.0]hexane-3-carboxylic acid (3,3-dimethyl-butyl)-amide]: the IC50 was found to be 0.009 µM.

For the compound `CC(C)(C)CCNC(=O)[C@@H]1C[C@H]2C[C@H]2N1C(=O)Cn1nc(C(N)=O)c2ccccc21` [Example 1, 1-{2-[(1R,3S,5R)-3-(3,3-Dimethyl-butylcarbamoyl)-2-aza-bicyclo[3.1.0]hex-2-yl]-2-oxo-ethyl}-1H-indazole-3-carboxylic acid amide], the 50% inhibitory concentration (IC50) turned out to be 0.061 µM.

Turning to `CO[C@@H]1CN(C(=O)Cn2nc(C(N)=O)c3ccccc32)[C@H](C(=O)NCCC(C)(C)C)[C@H]1F` [Example 11, 1-{2-[(2R,3R,4R)-2-(3,3-Dimethyl-butylcarbamoyl)-3-fluoro-4-methoxy-pyrrolidin-1-yl]-2-oxo-ethyl}-1H-indazole-3-carboxylic acid amide], the IC50 is 14.6 µM.

Turning to `COC[C@H](CC(C)(C)C)NC(=O)[C@@H]1C[C@H]2C[C@H]2N1C(=O)Cn1nc(C(N)=O)c2ccccc21` [Example 37, 1-{2-[(1R,3S,5R)-3-((S)-1-Methoxymethyl-3,3-dimethyl-butylcarbamoyl)-2-aza-bicyclo[3.1.0]hex-2-yl]-2-oxo-ethyl}-1H-indazole-3-carboxylic acid amide], the IC50 was 0.443 µM.

Consider `C[Si](C)(C)CCNC(=O)[C@@H]1C[C@H]2C[C@H]2N1C(=O)Cn1nc(C(N)=O)c2ccncc21` [Example 9, 1-{2-Oxo-2-[(1R,3S,5R)-3-(2-trimethylsilanyl-ethylcarbamoyl)-2-aza-bicyclo[3.1.0]hex-2-yl)-ethyl}-1H-pyrazolo[3,4-c] pyridine-3-carboxylic acid amide], for which the IC50 amounted to 0.153 µM.

Regarding `CC(=O)c1nn(CC(=O)N2[C@@H]3C[C@@H]3C[C@H]2C(=O)NCCOC(F)(F)F)c2ccc(OCc3ncccn3)cc12` [Example 15, (1R,3S,5R)-2-{2-[3-Acetyl-5-(pyrimidin-2-ylmethoxy)-indazol-1-yl]-acetyl}-2-aza-bicyclo[3.1.0]hexane-3-carboxylic acid (2-trifluoro methoxy-ethyl)-amide], the IC50 stood at 0.021 µM.

In the case of `CC(C)(O)CCNC(=O)[C@@H]1C[C@H]2C[C@H]2N1C(=O)Cn1nc(C(N)=O)c2ccncc21` [Example 10, 1-{2-[(1R,3S,5R)-3-(3-Hydroxy-3-methyl-butylcarbamoyl)-2-aza-bicyclo[3.1.0]hex-2-yl]-2-oxo-ethyl}-1H-pyrazolo[3,4-c] pyridine-3-carboxylic acid amide trifluoroacetate], the IC50 was 5.67 µM.

`C[Si](C)(C)CCNC(=O)[C@@H]1C[C@H]2C[C@H]2N1C(=O)Cn1nc(C(N)=O)c2ccccc21` [Example 28, 1-{2-oxo-2-[(1R,3S,5R)-3-(2-trimethylsilanyl-ethylcarbamoyl)-2-aza-bicyclo[3.1.0]hex-2-yl]-ethyl}-1H-indazole-3-carboxylic acid amide]: the IC50 worked out at 0.065 µM.

As for `CC(C)(C)C(=O)CNC(=O)[C@@H]1C[C@H]2C[C@H]2N1C(=O)Cn1nc(C(N)=O)c2ccccc21` [Example 34, 1-{2-[(1R,3S,5R)-3-(3,3-Dimethyl-2-oxo-butylcarbamoyl)-2-aza-bicyclo[3.1.0]hex-2-yl]-2-oxo-ethyl}-1H-indazole-3-carboxylic acid amide], the IC50 came out at 0.192 µM.

On to `CC(C)(C)C[C@@H](CO)NC(=O)[C@@H]1C[C@H]2C[C@H]2N1C(=O)Cn1nc(C(N)=O)c2ccccc21` [Example 35, 1-{2-[(1R,3S,5R)-3-((S)-1-Hydroxymethyl-3,3-dimethyl-butylcarbamoyl)-2-aza-bicyclo[3.1.0]hex-2-yl]-2-oxo-ethyl}-1H-indazole-3-carboxylic acid amide], for which the IC50 was 0.593 µM.
